Structures are written as SMILES.

Common to all, as to assay type: functional
One assay deals with SNB-19. The assay can be described thus: Cytotoxicity against human SNB19 cells assessed as cellular growth at 10 uM by SRB assay. On the technique in general: In SRB staining, fixed cells bind dye roughly in proportion to their protein.
In a further assay the test system is SK-MEL-2. The assay can be described thus: Cytotoxicity against human SK-MEL-2 cells assessed as cellular growth at 10 uM by SRB assay.
In another assay the test system is Hs-578T. The assay can be described thus: Cytotoxicity against human Hs578T cells assessed as cellular growth at 10 uM by SRB assay.
Another assay deals with NCI-H23. As to the kind of experiment: Cytotoxicity against human NCI-H23 cells assessed as cellular growth at 10 uM by SRB assay.
For the next assay, the system named is KM12. As to the kind of experiment: Cytotoxicity against human KM12 cells assessed as cellular growth at 10 uM by SRB assay.
Another assay relates to UACC-257. The assay can be described thus: Cytotoxicity against human UACC257 cells assessed as cellular growth at 10 uM by SRB assay.
The next assay has as its system SF-268. The assay can be described thus: Cytotoxicity against human SF268 cells assessed as cellular growth at 10 uM by SRB assay.
Another assay concerns SF-295. As to the kind of experiment: Cytotoxicity against human SF295 cells assessed as cellular growth at 10 uM by SRB assay.
The next assay concerns MDA-MB-231. The assay can be described thus: Cytotoxicity against human MDA-MB-231 cells assessed as cellular growth at 10 uM by SRB assay.
In a further assay the test system is NCI-H460. As to the kind of experiment: Cytotoxicity against human NCI-H460 cells assessed as cellular growth at 10 uM by SRB assay.
The test system of another assay is U-251. As to the kind of experiment: Cytotoxicity against human U251 cells assessed as cellular growth at 10 uM by SRB assay.
The subject of the next assay is SF-539. As to the kind of experiment: Cytotoxicity against human SF539 cells assessed as cellular growth at 10 uM by SRB assay.
A further assay concerns 786-0. The assay can be described thus: Cytotoxicity against human 786-0 cells assessed as cellular growth at 10 uM by SRB assay.
A further assay relates to RPMI-8226. As to the kind of experiment: Cytotoxicity against human RPMI8226 cells assessed as cellular growth at 10 uM by SRB assay.
Another assay deals with NCI-H522. The assay can be described thus: Cytotoxicity against human NCI-H522 cells assessed as cellular growth at 10 uM by SRB assay.
In a further assay the test system is MCF7. As to the kind of experiment: Cytotoxicity against human MCF7 cells assessed as cellular growth at 10 uM by SRB assay.
A further assay concerns SN12C. The assay can be described thus: Cytotoxicity against human SN12C cells assessed as cellular growth at 10 uM by SRB assay.
In a further assay the test system is CAKI-1. As to the kind of experiment: Cytotoxicity against human Caki1 cells assessed as cellular growth at 10 uM by SRB assay.
For a further assay, the system named is HOP-62. The assay can be described thus: Cytotoxicity against human HOP62 cells assessed as cellular growth at 10 uM by SRB assay.
The test system of another assay is DU-145. As to the kind of experiment: Cytotoxicity against human DU145 cells assessed as cellular growth at 10 uM by SRB assay.

As to `Clc1ccccc1Nc1nnc(-c2ccncc2)s1`, the Activity was determined as 99.81% in the assay with SNB-19; 106.68% with SK-MEL-2; 94.94% in the assay with Hs-578T; 102% in the assay with NCI-H23; 107.17% in the assay on KM12; 107.89% in the assay on UACC-257. Besides, the Activity in the assay with SF-268 is listed as 104.7%; in the assay with SF-295, 88.68%; with MDA-MB-231, 107.89%; in the assay with NCI-H460, 99.69%; in the assay with U-251, 102.87%; in the assay on SF-539, 107.62%. Moreover, the Activity turned out to be 80.21% in the assay with 786-0; 89.16% with RPMI-8226; 98.62% in the assay on NCI-H522; 96.02% in the assay with MCF7; 86% in the assay on SN12C; 90.5% in the assay on CAKI-1. The Activity with HOP-62 was determined as 117.96%.
For `CC1(C)CCc2cc(-c3ccn(S(=O)(=O)c4ccccc4Cl)n3)ccc2O1`, the Activity in the assay with SNB-19 stood at 88.07%; in the assay on SK-MEL-2 it was 102.25%; in the assay on Hs-578T it was 102.19%; in the assay with NCI-H23, 76.98%; in the assay with KM12, 62.1%; in the assay on UACC-257 it was 99.38%. In addition, the Activity in the assay with SF-268 is recorded as 96.38%; with MDA-MB-231, 99.59%; with NCI-H460, 79.3%; in the assay with U-251, 67.67%; with SF-539, 87.92%; in the assay with DU-145 it was 93.97%. Also, the Activity is 71.72% in the assay on 786-0; 70.97% with RPMI-8226; 77.85% in the assay with NCI-H522; 73.21% in the assay with MCF7; 75.88% in the assay with SN12C; 101.05% in the assay on CAKI-1. Besides, the Activity in the assay on HOP-62 was found to be 96.86%.
For the compound `Nc1c(C(=O)NCc2ccccc2)sc2nc3c(cc12)C(=O)CCC3`, the Activity is listed as 117.75% with SNB-19; 121.61% in the assay with SK-MEL-2; 122.77% in the assay with Hs-578T; 106.63% in the assay with NCI-H23; 106.46% with KM12; 106.3% in the assay on UACC-257. Moreover, the Activity was 112.13% in the assay on SF-268; 111.36% in the assay on MDA-MB-231; 101.03% with NCI-H460; 99.51% with U-251; 105.28% in the assay with SF-539; 127.66% with DU-145. Moreover, the Activity with 786-0 is listed as 110.1%; in the assay on RPMI-8226, 109.76%; with NCI-H522 it was 109.84%; in the assay on MCF7, 110.54%; in the assay on SN12C, 101.11%; in the assay on HOP-62 it was 115.1%.
As to `Cc1ccc(C2=N/C(=C\c3ccccc3)C(=O)O2)cc1`, the Activity came out at 103.53% in the assay on SNB-19; 108.55% in the assay with SK-MEL-2; 96.01% in the assay with Hs-578T; 101.26% with NCI-H23; 108.78% with KM12; 101.52% in the assay on UACC-257. The Activity with SF-268 is recorded as 98.83%; in the assay on MDA-MB-231, 105.18%; in the assay with NCI-H460, 109.3%; with U-251 it was 107.92%; with SF-539, 103.23%; in the assay on DU-145, 106.2%. The Activity with 786-0 stood at 103.22%; in the assay on RPMI-8226 it was 102.87%; in the assay on NCI-H522, 95.94%; in the assay on MCF7, 103.73%; in the assay on SN12C, 98.61%; with CAKI-1 it was 101.22%. Moreover, the Activity in the assay with HOP-62 was 108.81%.
Consider `N#Cc1ccc(-n2nnc3ccccc32)cc1C#N`, for which the Activity with SNB-19 is reported as 112.27%; in the assay with Hs-578T, 105.04%; with NCI-H23, 94%; with KM12, 96.37%; in the assay with UACC-257 it was 89.4%; in the assay on SF-268, 105%. Also, the Activity in the assay with SF-295 is reported as 91.5%; in the assay with MDA-MB-231 it was 111.41%; in the assay on NCI-H460, 106.55%; with U-251, 91.31%; in the assay with SF-539, 101.14%; in the assay with DU-145, 93.52%. In addition, the Activity in the assay with 786-0 worked out at 99.49%; in the assay on RPMI-8226, 100.67%; in the assay with NCI-H522, 88.08%; in the assay with MCF7, 82.05%; in the assay with SN12C, 101.03%; with CAKI-1, 85.44%. Also, the Activity in the assay on HOP-62 was found to be 94.62%.
Consider `O=C(NCc1cccnc1)c1sc2cc([N+](=O)[O-])ccc2c1Cl`, for which the Activity with SNB-19 stood at 96.96%; in the assay on Hs-578T it was 92.59%; in the assay with NCI-H23, 97.31%; in the assay with KM12 it was 96.39%; in the assay with UACC-257, 92.34%; in the assay on SF-268 it was 99.64%. For the same compound, the Activity in the assay with SF-295 turned out to be 92.94%; in the assay on MDA-MB-231 it was 117.28%; with NCI-H460 it was 106.27%; in the assay on U-251, 90.3%; in the assay with SF-539, 103.86%; with DU-145, 105.44%. Further, the Activity was 96.95% with 786-0; 94.49% with RPMI-8226; 97.09% in the assay with NCI-H522; 92.75% in the assay with MCF7; 92.4% in the assay with SN12C; 85.26% in the assay with CAKI-1. Moreover, the Activity in the assay on HOP-62 is given as 97.3%.
`Cc1cccc(-c2nc(-c3cccs3)no2)c1`: the Activity in the assay with SNB-19 worked out at 106.75%; in the assay with SK-MEL-2, 100.25%; in the assay on Hs-578T, 81.63%; in the assay with NCI-H23, 89.36%; with KM12 it was 104.19%; in the assay with UACC-257, 93.98%. Further, the Activity in the assay with SF-268 was found to be 112.75%; in the assay with SF-295, 91.28%; with MDA-MB-231 it was 76.61%; in the assay on NCI-H460 it was 94.9%; in the assay on U-251, 82.28%; in the assay on SF-539, 115.88%. Further, the Activity was 120% with DU-145; 93.47% in the assay with 786-0; 92.97% in the assay with RPMI-8226; 90.03% with NCI-H522; 39.04% in the assay with MCF7; 77.92% in the assay on CAKI-1. Also, the Activity with HOP-62 worked out at 79.48%.
Turning to `Cc1cc(C)c(NC(=O)c2sc3nc4c(cc3c2N)C(=O)CCC4)c(C)c1`, the Activity with SNB-19 is reported as 40.22%; in the assay with SK-MEL-2 it was 36.14%; in the assay with Hs-578T, 17.68%; with NCI-H23 it was 33.04%; in the assay on KM12, 27.28%; in the assay with UACC-257 it was 48.69%. The Activity in the assay with SF-268 was 38.6%; in the assay with SF-295, -11.34%; with MDA-MB-231 it was 35.68%; in the assay on NCI-H460, 6.43%; with U-251, 21.13%; with SF-539, -6.5%. In addition, the Activity with DU-145 is given as 10.04%; with 786-0, 30.39%; with RPMI-8226, 31.83%; with NCI-H522 it was -14.71%; with MCF7 it was 16.79%; in the assay with CAKI-1, -22.19%. Also, in the assay on HOP-62, the Activity stood at 36.92%.
With `Cc1ccc(NC(=O)c2sc3nc4c(cc3c2N)C(=O)CCC4)c(Br)c1`, the Activity in the assay on SNB-19 came to 100.23%; in the assay on Hs-578T it was 100.84%; in the assay on NCI-H23, 102.24%; in the assay with KM12 it was 97.82%; in the assay with UACC-257 it was 96.22%; in the assay on SF-268 it was 100.61%. For the same compound, the Activity in the assay with SF-295 amounted to 91.32%; in the assay with MDA-MB-231 it was 118.27%; in the assay on NCI-H460, 101.57%; in the assay with U-251, 94.7%; in the assay on SF-539, 108.91%; in the assay on DU-145, 108.79%. Also, the Activity is on record as 107.4% in the assay on 786-0; 109.86% with RPMI-8226; 103.96% in the assay with NCI-H522; 96.02% in the assay on MCF7; 94.31% in the assay on SN12C; 94.2% with CAKI-1. For the same compound, the Activity in the assay with HOP-62 is reported as 95.12%.

The record behind these values is ChEMBL document CHEMBL2202954, “The effect of PLC-γ2 inhibitors on the growth of human tumour cells” (2012).
